Experimental data: US20180353521A1, “METHOD FOR TREATING STROKE OR REDUCING NERVE INJURY” (priority 2017, published 2018)
Entries after “also recorded” stand apart in the source; their conditions may differ.

Legend:
[1] = tested on: Middle Cerebral Artery Occlusion, MCAO/Reperfusion Model (ischemic stroke); test: Analysis of brain infarct region (TTC staining) after MCAO; format: in vivo, male SD rats; conditions: 50 mg/kg given 10 minutes before MCAO; for reduction of brain infarct volume vs vehicle control group: Student's T test; for reduction of infarct size at positions from the front end of the brain: brain taken 24 hours after MCAO, 2 mm slices, FIG. 4B
[2] = Weight analysis in MCAO/reperfusion model; conditions: 24 hours after MCAO surgery, 50 mg/kg; for body weight, AVG, 24 hr: average value; for retardation in body weight decrease vs vehicle control group: FIG. 5
Source text: (§1) Test animals (250-350 g of male SD rats in this example) were anesthetized with 2% isoflurane in N2O/O2 (70%/30%). The right common carotid artery (right CCA), external carotid artery (ECA), and internal carotid artery (ICA) were isolated.
(§2) Cutting along the midline of the scalp, the nylon monofilament (the front of the nylon monofilament was covered with polysiloxane) was inserted through the external carotid artery along the internal carotid artery and extending to circle of Willis of the brain, resulting in obstruction of the middle cerebral artery. After an hour of ischemia, the nylon monofilament was removed and the brain's blood was reperfused.
(§3) The above-mentioned prevention model experiment further comprised a blank control group (sham) which were undergone no MCAO surgery and administered without the compound; and a vehicle control group (Vehicle) which was undergone MCAO surgery and administered with water in place of the compound.

[3] = tested on: Middle Cerebral Artery Occlusion, MCAO/Reperfusion Model (ischemic stroke); test: Neurobehavioral assessment after MCAO surgery; conditions: 50 mg/kg given 10 minutes before MCAO, 24 hours after MCAO surgery, Student's T test vs Vehicle, FIG. 3
Source text: as §1, §2, §3
Neurobehavioral assessment in one embodiment of the present invention was performed on the rats at 0.5, 1.5 and 24 hours after MCAO surgery on each group of rats, and scored according to the following states.
Score 0: lifting the rat by its tail to about 20 to 30 cm above the ground and observing the state of stretching the forelimbs, at which state the forelimb of the rat could stretch towards the ground with balance and no occurrences of other nerve injuries is shown in FIG. 2(A), representing the normal rat.
Score 1: lifting the rat by its tail to about 20 to 30 cm above the ground and observing the state of stretching the forelimb.
Score 2: the rat was placed on the ground and a lateral thrust was applied. The resistance of the rat to the thrust ipsilateral to the damaged area of the brain was decreased.
Score 3: the rat continued to go around in circles towards the contralateral side of damaged area of the brain and incapable of going straight when it was set free to exercise.
The Student's T test was adopted to determine whether there was difference between the groups administered with each compound and the Vehicle group. If the p value was less than or equal to 0.05, it represented significant difference.

Row | Compound | total infarct volume (%) of the brain ([1]; 24 hours after MCAO, FIG. 4C) | reduction of brain infarct volume vs vehicle control group ([1]; 24 hours after MCAO, FIG. 4C) | reduction of brain infarct volume vs vehicle control group ([1]; 24 hours after MCAO, FIG. 4C, listed as AR-04-415) | reduction of infarct size at positions from the front end of the brain [1] | body weight, AVG, 24 hr [2] | nerve injury (neurobehavioral assessment score) vs Vehicle [3] | nerve injury (neurobehavioral assessment score) vs Vehicle ([3]; listed as AR-04-415) | reduction of brain infarct volume vs vehicle control group ([1]; 24 hours after MCAO, FIG. 4C, listed as AR-04-155) | retardation in body weight decrease vs vehicle control group [2] | nerve injury (neurobehavioral assessment score) vs Vehicle ([3]; listed as AR-04-155) | reduction of brain infarct volume vs vehicle control group ([1]; 24 hours after MCAO, FIG. 4C, listed as AR-04-18225) | reduction of infarct size at positions from the front end of the brain ([1]; listed as AR-04-18225) | nerve injury (neurobehavioral assessment score) vs Vehicle ([3]; listed as AR-04-18225)
1 | C=C(CC[C@@H](C(=O)O)[C@H]1CC[C@@]2(C)C3=CC[C@H]4C(C)(C)[C@@H](O)CC[C@]4(C)C3=CC[C@]12C)C(C)C [AR-04-41S, dehydroeburicoic acid] | less than 10% | statistically significant effect in reducing the brain infarct volume | best effect on reducing the infarct volume | significant effect in reducing the infarct size at 3 mm, 7 mm, 9 mm, 11 mm, and 13 mm; also recorded: better efficacy at 7 mm | 266.5 | statistically significant in efficacy; also recorded: statistically significant effect in reducing nerve injury | recovery tendency |  |  |  |  |  | 
2 | COc1cc(C)c(OC)c2c1OCO2 [AR-04-15S, 4,7-Dimethoxy-5-methyl-1,3-benzodioxole] |  |  |  | significant effect in reducing the infarct size at 7 mm, 9 mm and 11 mm | 243.2 |  |  | significant effects in reducing the infarct; also recorded: statistically significant effect in reducing the brain infarct volume | significant retardation in body weight decrease | recovery tendency; also recorded: significant effects in reducing nerve injury |  |  | 
3 | C=C(CC[C@@H](C(=O)O)[C@H]1C[C@H](O)[C@@]2(C)C3=CC[C@H]4C(C)(C)[C@@H](O)CC[C@]4(C)C3=CC[C@]12C)C(C)C [AR-04-1822S, dehydrosulphurenic acid (dehydrosulfurenic acid)] |  | significant effects in reducing the infarct |  |  | 270.0 | statistically significant in efficacy |  |  | significant retardation in body weight decrease |  | statistically significant effect in reducing the brain infarct volume | significant effect in reducing the infarct size at 3 mm, 5 mm, 7 mm, 9 mm, 11 mm, and 13 mm; also recorded: significantly better effect in reducing the infarct size at 7 mm and 9 mm | recovery tendency; also recorded: statistically significant effect in reducing nerve injury
